We go through 8 substances from paper PMC5114273, “Activity of Scorpion Venom-Derived Antifungal Peptides against Planktonic Cells of Candida spp. and Cryptococcus neoformans and Candida albicans Biofilms” (Frontiers in Microbiology, 2016).

Ends that are not written are not given here.

Data set [1] deals with Candida spp. and C. neoformans. Briefly: Broth microdilution antifungal assay, summary over the strains tested. The format is cell-based, Candida spp.; Cryptococcus neoformans. Particulars: data not shown. An excerpt:
(§1) Candida albicans strain SC 5314 (ATCC MYA-2876) was provided by Dr. Joshua Nosanchuk (New York, NY, USA). C. glabrata ATCC 90030, C. parapsilosis ATCC 22019, and C. tropicalis ATCC 750 were provided by Dr. Érika Kioshima (Universidade Estadual de Maringá, Paraná, Brazil). C. neoformans var. grubii strain H99 (serotype A, ATCC 208821) was provided by Dr. John Perfect (Durham, NC, USA). C. neoformans var. neoformans B3501 (serotype D, ATCC 34873) was obtained from ATCC (Manassas, VA, USA). All strains were stored as frozen stocks in 35% glycerol at -80°C. Before each experiment, all Candida spp. strains were grown in Sabouraud’s dextrose broth overnight at 30°C with agitation. C. neoformans strains were grown in the same conditions for 24 h. Fungal cells were collected by centrifugation, washed three times in phosphate buffered saline (PBS) (137 mM NaCl, 2.7 mM KCl, 10 mM Na2HPO4, 2 mM KH2PO4) and inoculated in Roswell Park Memorial Institute (RPMI) 1640 medium supplemented with L-glutamine and buffered to pH 7.0 with 165 mM 3-(N-morpholino)propanesulfonic acid for experiments described below.
In vitro antifungal assays were performed according to broth microdilution susceptibility test from Clinical and Laboratory Standards Institute (CLSI) M27-A3 guidelines with some modifications. Briefly, twofold serial dilutions of each peptide were prepared in 96-well polystyrene microplates to a final volume of 50 μL. Amphotericin B (Amp B; A2942, Sigma-Aldrich), a known antifungal drug, was used as a positive control. Final concentrations of each peptide and Amp B ranged from 100 to 0.78 μM and 16 to 0.03 μg/mL, respectively, except in tests with C. glabrata and C. parapsilosis, where the final peptide concentration ranged from 400 to 0.78 μM. In each plate, wells were included without peptide as a growth control. Then, 50 μL of the adjusted inoculum in RPMI-1640 medium were added to each well to a final concentration of 2 × 10^3 cells/mL for Candida spp. and 10^4 cells/mL for C. neoformans strains. The plates were incubated at 37°C for 24 and 48 h, respectively. […]
Background: Broth dilution looks for growth in wells or tubes with falling amounts of substance.

A further data set concerns human erythrocytes. Briefly: Hemolytic assay. Particulars: 1 h, 540 nm; for Hemolysis: all the tested concentrations (100 to 0.78 μM), 3% hematocrit in PBS. The format is cell-based. An excerpt: Considering the potential use of the AMPs as treatment against pathogens, even if in a more distant future, some of their properties against host cells should be addressed. To achieve this goal, we have performed hemolytic assay to evaluate if these molecules are toxic or harmless to red blood cells. Further, we have also tested the possible cytotoxicity of those peptides against other mammalian cell types by following the cell viability score after treatment. The solution of human red blood cells was treated with the peptide at levels ranging from 100 to 0.78 μM. Whole human blood was collected from healthy donors in vials with ethylenediaminetetraacetic acid (EDTA). The red blood cells were separated by centrifugation and resuspended in PBS. After the centrifugation (800 g, 5 min at 4 ± 1°C) the supernatant was removed and the red blood cells pellet was resuspended to a 3% hematocrit in sterile water (considered as 100% hemolysis) and PBS (taken as blank for spectrophotometric measurement). Fifty microliters of the 3% cell suspension in PBS were added to different final concentrations of the peptide (v/v) in a 96-well polystyrene microplate and then incubated for 1 h ([Nahar et al., 2008]; [Zhao et al., 2009]; [Qi et al., 2010]). The microplates were centrifuged and the supernatant was collected and analyzed at 540 nm using a microplate spectrophotometer. The percentage of hemolysis was calculated relative to the positive control as performed by [Nahar et al. (2008)]. The procedures were approved by the Ethics Committee on Human Research of Faculty of Medicine/University of Brasília (UnB) and conform to FDA standards (UnBDoc no. 66704/2016).

Data set [2] in a line: Circular dichroism, α-helix content. The format is physicochemical. To be noted: CD, 0.2 mg/mL, 37°C, from [θ]208. The method, then:
Circular dichroism (CD) assays were carried out using Jasco J-815 spectropolarimeter equipped with a Peltier-type temperature controller. Peptides (0.2 mg/mL) were analyzed in water at 37°C in absence or the presence of trifluoroethanol (TFE) (10, 30, and 50%). The mean spectrum of three consecutive experiments was corrected for the baseline buffer contribution. The observed ellipticities were converted into molar ellipticity ([θ]) based on molecular mass per residue of 115 Da ([Adler et al., 1973]). The α helix secondary structure content (fθ) was estimated considering the values of [θ]208 nm as a function of TFE concentration using the following equation ([Greenfield and Fasman, 1969]): […]
(In general: Circular dichroism is widely used to follow secondary structure.)

A further data set deals with C. tropicalis (ATCC 750). Kind of data set: microbe, parasite or virus in culture. Particulars: RPMI-1640 pH 7.0, 2 × 10^3 cells/mL, 37°C, 24 h; complete inhibition of visible growth; at least three experiments; read-out: Minimum inhibitory concentration, C. tropicalis (ATCC 750). The format is cell-based, Candida tropicalis.
Description: as §1
(§2) In vitro antifungal assays were performed according to broth microdilution susceptibility test from Clinical and Laboratory Standards Institute (CLSI) M27-A3 guidelines with some modifications. Briefly, twofold serial dilutions of each peptide were prepared in 96-well polystyrene microplates to a final volume of 50 μL. Amphotericin B (Amp B; A2942, Sigma-Aldrich), a known antifungal drug, was used as a positive control. Final concentrations of each peptide and Amp B ranged from 100 to 0.78 μM and 16 to 0.03 μg/mL, respectively, except in tests with C. glabrata and C. parapsilosis, where the final peptide concentration ranged from 400 to 0.78 μM. In each plate, wells were included without peptide as a growth control. Then, 50 μL of the adjusted inoculum in RPMI-1640 medium were added to each well to a final concentration of 2 × 10^3 cells/mL for Candida spp. and 10^4 cells/mL for C. neoformans strains. The plates were incubated at 37°C for 24 and 48 h, respectively. The strains of C. neoformans were also incubated with shaking (200 rpm). […] The experiments were performed at least three times on separate dates.

A further data set relates to C. albicans (SC5314). Briefly: microbe, parasite or virus in culture. The format is cell-based, Candida albicans. Particulars: RPMI-1640 pH 7.0, 2 × 10^3 cells/mL, 37°C, 24 h; complete inhibition of visible growth; at least three experiments; read-out: Minimum inhibitory concentration, C. albicans (SC5314).
Description: as §1, §2

For data set [3], the system named is C. neoformans (B3501 serotype D). Kind of data set: microbe, parasite or virus in culture. To be noted: RPMI-1640 pH 7.0, 10^4 cells/mL, 37°C, 48 h, shaking 200 rpm; at least three experiments; read-out: Minimum inhibitory concentration, C. neoformans (B3501 serotype D). The format is cell-based, Cryptococcus neoformans var. neoformans.
Description: as §1, §2

In data set [4] the test system is C. neoformans (H99 serotype A). Briefly: microbe, parasite or virus in culture. The format is cell-based, Cryptococcus neoformans var. grubii. Particulars: RPMI-1640 pH 7.0, 10^4 cells/mL, 37°C, 48 h, shaking 200 rpm; at least three experiments; read-out: Minimum inhibitory concentration, C. neoformans (H99 serotype A).
Description: as §1, §2

For data set [5], the system named is peritoneal macrophages of BALB/c mice. Kind of data set: Cytotoxic test using peritoneal macrophages (LDH release). Particulars: 24 h; for Viability of peritoneal macrophages: whole range of peptide concentrations. The format is cell-based, mouse. The method, then: BALB/c mice were injected with thioglycolate 72 h before peritoneal macrophages were harvested. They were diluted to a concentration of 10^6 cell/mL in RPMI-1640 supplemented with penicillin/streptomycin (100 U/mL, 100 µg/mL), 2 mM L-glutamine, 2 mM non-essential amino acids, 1 mM sodium pyruvate (all reagents from Sigma-Aldrich, St Louis, MO, USA) and 10% fetal bovine serum (FBS), and incubated in 96-well polystyrene microplates at 37°C, 5% CO2 for 24 h. The peptides were added then and cells were further incubated for 24 h as described previously ([Cruz et al., 2005]). Three independent experiments were performed. Cytotoxic activity was evaluated by the release of cytoplasmic enzyme lactate dehydrogenase due to cell lysis using the Cytotox kit (Promega). Briefly, at the end of the incubation period, supernatants were collected, the adhered cells were washed and the toxicity was determined according to the manufacturer’s protocol. The procedures were approved by the Ethics Committee on Animal Research of Institute of Biology (UnBDOC 52657/2011)/University of Brasília (UnB).
(LDH leaks from cells whose membrane has failed.)

Data set [6] deals with C. parapsilosis (ATCC 22019). Kind of data set: microbe, parasite or virus in culture. The format is cell-based, Candida parapsilosis. To be noted: RPMI-1640 pH 7.0, 2 × 10^3 cells/mL, 37°C, 24 h; peptides 400 to 0.78 μM; at least three experiments; read-out: Minimum inhibitory concentration, C. parapsilosis (ATCC 22019).
Description: as §1, §2

In another data set the test system is C. glabrata (ATCC 90030). Kind of data set: microbe, parasite or virus in culture. The format is cell-based, Candida glabrata. Particulars: RPMI-1640 pH 7.0, 2 × 10^3 cells/mL, 37°C, 24 h; peptides 400 to 0.78 μM; at least three experiments; read-out: Minimum inhibitory concentration, C. glabrata (ATCC 90030).
Description: as §1, §2

With “EEDDLLGFSEEDLKAIKEHRAKNA-NH2 [ToAcP, anionic peptide from T. obscurus, LT576031]”, in data set [1] (Candida spp. and C. neoformans), the “Antifungal activity in the tested concentrations” value (“Antifungal activity” below) was “did not present antifungal activity”.

With “FFGTLFKLLSKLIPGLMKLFSKLLER-NH2 [ToAP2S1, modified analog of ToAP2, C-terminally amidated]”, the “Hemolysis curve compared with ToAP2” value in the data set on human erythrocytes (with concentrations up to 25 μM) is on record as “higher hemolysis curve”. Further, the “Antifungal activity” value in [1] (C. albicans, C. glabrata and C. neoformans H99) is recorded as “did not show antifungal activity”. Besides, in data set [2] (TFE 10%), the “α-Helix content (%), TFE 10%” value came out at 22.9%. Also, the “α-Helix content (%), TFE 30%” value in data set [2] (TFE 30%) is recorded as 24.3%. In data set [2] (TFE 50%), the “α-Helix content (%), TFE 50%” value is on record as 24.7%. In addition, in data set [2] (water, mean spectrum of three experiments), the “α-Helix content (%), water” value stood at 16.5%.

Consider “FFSLIPSLIGGLVSAIK-NH2 [ToAP4, NDBP subfamily 4 peptide from T. obscurus, amidated]”, for which the “Antifungal activity” value in data set [1] (Candida spp. and C. neoformans) is reported as “has not shown antifungal activity”.

With FIGMIPGLIGGLISAFK-NH2 [ToAP1], the MIC in the data set with C. tropicalis (ATCC 750) is 12.5 µM; in the data set with C. albicans (SC5314), 50 µM; in data set [3] it was 12.5 µM; in data set [4], 25 µM; in data set [6] it was 200 µM; with C. glabrata (ATCC 90030) it was greater than 400 µM. Further, the Hemolysis entry in the data set with human erythrocytes is “lower than 50%”. Besides, the “Viability of peritoneal macrophages” value in data set [5] was “higher viability”.

Regarding FIGMIPGLIGGLISAIK-NH2 [ToAP3], the MIC in the data set with C. tropicalis (ATCC 750) was 12.5 µM; in the data set with C. albicans (SC5314), 25 µM; in [3], 25 µM; in [4], 100 µM; in [6], 100 µM; in the data set on C. glabrata (ATCC 90030), greater than 400 µM.

As for FLGMIPGLIGGLISAFK-NH2 [NDBP-4.23], the MIC with C. tropicalis (ATCC 750) is 6.25 µM; with C. albicans (SC5314) it was 50 µM; in data set [3], 12.5 µM; in data set [4] it was 25 µM; in data set [6], 100 µM; with C. glabrata (ATCC 90030), greater than 400 µM. Further, in the data set with human erythrocytes, the Hemolysis result is recorded as “lower than 50%”. Also, the “Concentrations showing low cytotoxicity” value in data set [5] (threshold of acceptable cytotoxicity 50% viability, three independent experiments) is less than 25 µM.

Turning to GILGKIWEGVKSLI [NDBP-5.8], the MIC was 25 µM in the data set with C. tropicalis (ATCC 750); 100 µM in the data set with C. albicans (SC5314); 50 µM in [3]; 100 µM in data set [4]; 200 µM in data set [6]; greater than 400 µM in the data set with C. glabrata (ATCC 90030).

For the substance ILSAIWSGIKSLF-NH2 [NDBP-5.7], the MIC was 25 µM with C. tropicalis (ATCC 750); 25 µM in the data set with C. albicans (SC5314); 12.5 µM in data set [3]; 25 µM in [4]; greater than 400 µM in data set [6]; greater than 400 µM in the data set with C. glabrata (ATCC 90030). In addition, in the data set with human erythrocytes (in concentrations up to 50 μM), the Hemolysis percent result is listed as “higher than 50%”. For the same substance, in data set [5], the “Viability of peritoneal macrophages” value was “higher viability”.
